Molecules are shown by their SMILES.

In the first experiment the test system is A549 cells. Description: Cell migration assay (24-well transwell, laminin). The experiment is classed as cell-based, human. To be noted: Homo sapiens, A549, 6 h, laminin 10 μg/mL in lower well, test compounds 0.39˜100 μM, migrated cells counted, read-out: Inhibitory activity against cell migration. As for the experimental part: Cell migration was measured with a 24-well transwell having a polycarbonate membrane (8.0 μm pore size, Costar) at the bottom of the upper chamber. Each lower well was treated with laminin (10 μg/mL) and test compounds in predetermined concentrations (0.39˜100 μM) along with a serum-free RPMI1640 medium. A549 cells (Korean Cell Line Bank) were suspended in a serum-free RPMI1640 medium at a concentration of 1×10^6 cells/mL and then the test compounds were added thereto at the indicated concentrations. Each resulting solution (100 μL) was added to the upper chamber. The cells were cultured at 37° C. for 6 hours in a CO2 incubator. The upper chamber was taken out and then the cells were fixed with PBS containing 70% methyl alcohol for 10 minutes, followed by washing with PBS twice. The cells were stained with hematoxylin (Sigma) for 10 minutes and then washed with distilled water. The non-migrated cells were removed from the upper portion of the polycarbonate membrane with a cotton swab. The membranes were excised and separated from the chamber, and then mounted to a slide using a gel mount reagent (Biomeda, USA). The migrated cells (attached to the lower face of the membrane) were counted at three randomly selected sites under a microscope (×20). The cell counting was performed with the Image J program. From the counted cell numbers, each IC50 value was calculated by non-linear regression curve fit using the “GraphPad Prism” program.
The cells are pulled by laminin residing in the lower chamber and then passed through the polycarbonate membrane, so as to attach to the lower face of the membrane.
As for `O=C(O)c1ccc(CN(CCc2cc(F)ccc2F)c2nc3cccc(F)c3s2)cc1` [Example 35, 4-({[2-(2,5-difluorophenyl)ethyl](7-fluorobenzo[d]thiazol-2-yl)amino}methyl)benzoic acid], the IC50 is above 10 µM.
On the same count and under the same terms, the result for `O=C(O)c1ccc(CN(CCc2cc(F)c(F)c(F)c2)c2nc3cccc(F)c3s2)cc1` [Example 36, 4-({(7-fluorobenzo[d]thiazol-2-yl)[2-(3,4,5-trifluorophenyl)ethyl]amino}methyl)benzoic acid] reads above 10 µM.
The same measure, in the same setting: the result for `COc1ccc(CCN(Cc2ccc(C(=O)O)cc2)c2nc3cccc(F)c3s2)cc1Br` [Example 37, 4-({[2-(3-bromo-4-methoxyphenyl)ethyl](7-fluorobenzo[d]thiazol-2-yl)amino}methyl)benzoic acid] reads above 10 µM.
With `O=C(O)c1ccc(CN(CCc2ccc(Cl)cc2Cl)c2nc3cccc(F)c3s2)cc1` [Example 38, 4-({[2-(2,4-dichlorophenyl)ethyl](7-fluorobenzo[d]thiazol-2-yl)amino}methyl)benzoic acid], the IC50 is above 10 µM.
On the same count and under the same terms, the result for `O=C(O)c1ccc(CN(CCc2ccc(F)cc2F)c2nc3cccc(F)c3s2)cc1` [Example 39, 4-({[2-(2,4-difluorophenyl)ethyl](7-fluorobenzo[d]thiazol-2-yl)amino}methyl)benzoic acid] reads above 10 µM; that for `O=C(O)c1ccc(CN(CCc2ccccc2F)c2nc3cccc(F)c3s2)cc1` [Example 41, 4-({(7-fluorobenzo[d]thiazol-2-yl)[2-(2-fluorophenyl)ethyl]amino}methyl)benzoic acid], above 10 µM.
The same measure, in the same setting: the result for `COc1ccc(CCN(Cc2ccc(C(=O)O)cc2)c2nc3cccc(F)c3s2)c(F)c1F` [Example 43, 4-({[2-(2,3-difluoro-4-methoxyphenyl)ethyl](7-fluorobenzo[d]thiazol-2-yl)amino}methyl)benzoic acid] reads below 1 µM; that for `COc1cc(C)c(CCN(Cc2ccc(C(=O)O)cc2)c2nc3cccc(F)c3s2)cc1C(C)C` [Example 44, 4-{[(7-fluorobenzo[d]thiazol-2-yl){2-[4-methoxy-2-methyl-5-(propan-2-yl)phenyl]ethyl}amino]methyl}benzoic acid], above 10 µM.
On the same count and under the same terms, the result for `COc1cc(F)c(CCN(Cc2ccc(C(=O)O)cc2)c2nc3cccc(F)c3s2)cc1F` [Example 45, 4-({[2-(2,5-difluoro-4-methoxyphenyl)ethyl](7-fluorobenzo[d]thiazol-2-yl)amino}methyl)benzoic acid] reads below 1 µM.
For the compound `COc1ccc(CCN(Cc2ccc(C(=O)O)cc2)c2nc3cccc(F)c3s2)c(Cl)c1` [Example 46, 4-({[2-(2-chloro-4-methoxyphenyl)ethyl](7-fluorobenzo[d]thiazol-2-yl)amino}methyl)benzoic acid], the IC50 was above 10 µM.
The same measure, in the same setting: the result for `COc1ccc(CCN(Cc2ccc(C(=O)O)cc2)c2nc3cccc(F)c3s2)c(C)c1C` [Example 47, 4-({(7-fluorobenzo[d]thiazol-2-yl)[2-(4-methoxy-2,3-dimethylphenyl)ethyl]amino}methyl)benzoic acid] reads above 10 µM; that for `COc1cc(C)c(CCN(Cc2ccc(C(=O)O)cc2)c2nc3cccc(F)c3s2)cc1C` [Example 48, 4-({(7-fluorobenzo[d]thiazol-2-yl)[2-(4-methoxy-2,5-dimethylphenyl)ethyl]amino}methyl)benzoic acid], below 1 µM.
Still for that read-out and setting: the result for `COc1ccc(CCN(Cc2ccc(C(=O)O)cc2)c2nc3cccc(F)c3s2)cc1C` [Example 49, 4-({(7-fluorobenzo[d]thiazol-2-yl)[2-(4-methoxy-3-methylphenyl)ethyl]amino}methyl)benzoic acid] reads below 1 µM.
The same measure, in the same setting: the result for `COc1ccc(CCN(Cc2ccc(C(=O)O)cc2)c2nc3cccc(F)c3s2)c(C)c1` [Example 50, 4-({(7-fluorobenzo[d]thiazol-2-yl)[2-(4-methoxy-2-methylphenyl)ethyl]amino}methyl)benzoic acid] reads below 1 µM.
As for `COc1cc(F)c(CCN(Cc2ccc(C(=O)O)cc2)c2nc3cccc(F)c3s2)c(F)c1` [Example 51, 4-({[2-(2,6-difluoro-4-methoxyphenyl)ethyl](7-fluorobenzo[d]thiazol-2-yl)amino}methyl)benzoic acid], the IC50 was below 1 µM.
Still for that read-out and setting: the result for `COc1ccc(CCN(c2nc3cccc(F)c3s2)C(C)c2ccc(C(=O)O)cc2)cc1` (centres unmarked) [Example 52, 4-(1-{(7-fluorobenzo[d]thiazol-2-yl)[2-(4-methoxyphenyl)ethyl]amino}ethyl)benzoic acid] reads below 1 µM; that for `CCC(c1ccc(C(=O)O)cc1)N(CCc1ccc(OC)cc1)c1nc2cccc(F)c2s1` (centres unmarked) [Example 53, 4-(1-{(7-fluorobenzo[d]thiazol-2-yl)[2-(4-methoxyphenyl)ethyl]amino}propyl)benzoic acid], below 1 µM; that for `COc1ccc(CCN(c2nc3cccc(F)c3s2)C(C)c2ccc(C(=O)O)cc2)cc1F` (centres unmarked) [Example 54, 4-(1-{(7-fluorobenzo[d]thiazol-2-yl)[2-(3-fluoro-4-methoxyphenyl)ethyl]amino}ethyl)benzoic acid], above 10 µM.
Still for that read-out and setting: the result for `COc1ccc(CCN(c2nc3cccc(F)c3s2)C(C)c2ccc(C(=O)O)cc2)cc1Br` (centres unmarked) [Example 55, 4-(1-{[2-(3-bromo-4-methoxyphenyl)ethyl](7-fluorobenzo[d]thiazol-2-yl)amino}ethyl)benzoic acid] reads above 10 µM; that for `CC(c1ccc(C(=O)O)cc1)N(CCc1ccc(F)cc1F)c1nc2cccc(F)c2s1` (centres unmarked) [Example 56, 4-(1-{[2-(2,4-difluorophenyl)ethyl](7-fluorobenzo[d]thiazol-2-yl)amino}ethyl)benzoic acid], above 10 µM.
Same read-out and setting: the result for `CC(c1ccc(C(=O)O)cc1)N(CCc1cccc(F)c1F)c1nc2cccc(F)c2s1` (centres unmarked) [Example 57, 4-(1-{[2-(2,3-difluorophenyl)ethyl](7-fluorobenzo[d]thiazol-2-yl)amino}ethyl)benzoic acid] reads above 10 µM.
As to `CC(c1ccc(C(=O)O)cc1)N(CCc1cc(F)c(F)c(F)c1)c1nc2cccc(F)c2s1` (centres unmarked) [Example 58, 4-(1-{(7-fluorobenzo[d]thiazol-2-yl)[2-(3,4,5-trifluorophenyl)ethyl]amino}ethyl)benzoic acid], the IC50 is above 10 µM.
The same measure, in the same setting: the result for `CC(c1ccc(C(=O)O)cc1)N(CCc1ccc(Cl)cc1Cl)c1nc2cccc(F)c2s1` (centres unmarked) [Example 59, 4-(1-{[2-(2,4-dichlorophenyl)ethyl](7-fluorobenzo[d]thiazol-2-yl)amino}ethyl)benzoic acid] reads above 10 µM; that for `COc1ccc(CCN(c2nc3cccc(F)c3s2)C(C)c2ccc(C(=O)O)cc2)c(F)c1F` (centres unmarked) [Example 60, 4-(1-{[2-(2,3-difluoro-4-methoxyphenyl)ethyl](7-fluorobenzo[d]thiazol-2-yl)amino}ethyl)benzoic acid], below 1 µM.
On the same count and under the same terms, the result for `COc1cc(F)c(CCN(c2nc3cccc(F)c3s2)C(C)c2ccc(C(=O)O)cc2)cc1F` (centres unmarked) [Example 61, 4-(1-{[2-(2,5-difluoro-4-methoxyphenyl)ethyl](7-fluorobenzo[d]thiazol-2-yl)amino}ethyl)benzoic acid] reads below 1 µM.

Staying with this experiment, now noted: laminin 10 μg/mL in lower well, test compounds 0.39˜100 μM, 6 hours, migrated cells counted, read-out: Inhibitory activity against cell migration.
Take `COc1cccc(CCN(Cc2ccc(C(=O)O)cc2)c2nc3cccc(F)c3s2)c1` [Example 42, 4-({(7-fluorobenzo[d]thiazol-2-yl)[2-(3-methoxyphenyl)ethyl]amino}methyl)benzoic acid]: the IC50 was above 10 µM.
